According to patent publication US7718160B2, “Radiolabeled compounds and liposomes and their method of making and using same” (The Board of Regents of the University of Texas System, priority 2002, dated 2010):
Entries after “also recorded” stand apart in the source; their conditions may differ. Values belong to the compound of their own block, whether it stands above or below them.

Legend:
Format in all cases: in vivo
[1] = Normal rat biodistribution of ^99mTc-liposomes at 20 hours after intravenous injection
Method: For comparison, biodistributions of the ^99mTc-“SNS/S” complexes used for liposome labeling were also performed.

[2] = Gamma camera images of normal rats after intravenous injection (^99mTc); conditions: rat, baseline, 1 hour, 4 hours and 20 hours after intravenous injection
Excerpt: (H: Heart; S: Spleen; L: Liver; Bo: Bowel; B1: Bladder.)
(H: Heart; S: Spleen; L: Liver; Bo: Bowel.)
From the images, significant differences between ^99mTc-liposome labeled with ^99mTc-“BMEDA” and ^99mTc-“BMEDA” alone were observed. […] From the images, significant differences between ^99mTc-liposome labeled with ^99mTc-“BMEDA+BT” and ^99mTc-“BMEDA+BT” alone were observed.

[3] = Normal rat biodistribution of ^186Re-liposomes at 72 hours after intravenous injection
[4] = Gamma camera images of normal rats after intravenous injection (^186Re); conditions: rat, baseline, 1 hour, 4 hours, 24 hours and 72 hours after intravenous injection

distribution behavior [1]: does not
SMILES: CCN(CC)CCN(CCS)CC[S][99Tc]1(=[O])[S]CCN(CCN(CC)CC)CC[S]1 [^99mTc-“BMEDA” alone]
distribution seen in gamma camera images [2]: fast blood clearance, fast excretion into bowel and urine, and no spleen accumulation

% ID/Gram (Average ± Sd), Blood ([3]; normal rat): 0.022 ± 0.001 % ID/Gram | % ID/Gram (Average ± Sd), Bowel ([3]; normal rat): 0.34 ± 0.19 % ID/Gram | % ID/Gram (Average ± Sd), Brain ([3]; normal rat): 0.0035 ± 0.0007 % ID/Gram | % ID/Gram (Average ± Sd), Feces ([3]; normal rat): 4.82 ± 1.53 % ID/Gram | % ID/Gram (Average ± Sd), Femur ([3]; normal rat): 0.014 ± 0.000 % ID/Gram | % ID/Gram (Average ± Sd), Heart ([3]; normal rat): 0.069 ± 0.007 % ID/Gram | % ID/Gram (Average ± Sd), Kidney ([3]; normal rat): 4.49 ± 0.37 % ID/Gram | % ID/Gram (Average ± Sd), Liver ([3]; normal rat): 0.54 ± 0.05 % ID/Gram | % ID/Gram (Average ± Sd), Lung ([3]; normal rat): 0.23 ± 0.03 % ID/Gram | % ID/Gram (Average ± Sd), Muscle ([3]; normal rat): 0.0048 ± 0.0005 % ID/Gram | % ID/Gram (Average ± Sd), Skin ([3]; normal rat): 0.029 ± 0.012 % ID/Gram | % ID/Gram (Average ± Sd), Spleen ([3]; normal rat): 0.38 ± 0.14 % ID/Gram | % ID/Gram (Average ± Sd), Testis ([3]; normal rat): 0.015 ± 0.003 % ID/Gram | % ID/Gram (Average ± Sd), Urine ([3]; normal rat): 0.79 ± 0.08 % ID/Gram | % ID/Organ (Average ± Sd), Blood ([3]; normal rat): 0.49 ± 0.04 % ID/Organ | % ID/Organ (Average ± Sd), Bowel ([3]; normal rat): 6.67 ± 3.31 % ID/Organ | % ID/Organ (Average ± Sd), Brain ([3]; normal rat): 0.0052 ± 0.0007 % ID/Organ | % ID/Organ (Average ± Sd), Feces ([3]; normal rat): 20.54 ± 4.35 % ID/Organ | % ID/Organ (Average ± Sd), Femur ([3]; normal rat): 0.58 ± 0.06 % ID/Organ | % ID/Organ (Average ± Sd), Heart ([3]; normal rat): 0.076 ± 0.005 % ID/Organ | % ID/Organ (Average ± Sd), Kidney ([3]; normal rat): 10.42 ± 0.93 % ID/Organ | % ID/Organ (Average ± Sd), Liver ([3]; normal rat): 5.97 ± 0.35 % ID/Organ | % ID/Organ (Average ± Sd), Lung ([3]; normal rat): 0.37 ± 0.06 % ID/Organ | % ID/Organ (Average ± Sd), Muscle ([3]; normal rat): 0.79 ± 0.07 % ID/Organ | % ID/Organ (Average ± Sd), Skin ([3]; normal rat): 1.48 ± 0.51 % ID/Organ | % ID/Organ (Average ± Sd), Spleen ([3]; normal rat): 0.21 ± 0.05 % ID/Organ | % ID/Organ (Average ± Sd), Testis ([3]; normal rat): 0.058 ± 0.004 % ID/Organ | % ID/Organ (Average ± Sd), Urine ([3]; normal rat): 26.93 ± 4.23 % ID/Organ
SMILES: CCN(CC)CCN(CCS)CC[S][186Re]1(=[O])[S]CCN(CCN(CC)CC)CC[S]1 [^186Re-“BMEDA” Alone]
spleen accumulation ([3]; rat): did not show the spleen accumulation behavior | distribution seen in gamma camera images [4]: significant excretion from the hepatobiliary system and no apparent spleen accumulation; also recorded: fast blood clearance, fast excretion into bowel and urine, and no spleen accumulation | distribution seen in gamma camera images ([4]; listed as 186Re-“BMBDA” alone): fast blood clearance, fast excretion into bowel and urine, and no spleen accumulation
